Test results reported in patent US20050245399A1, “Pyrazole derivatives as herbicidal compositions containing them” (ISHIHARA SANGYO KAISHA, LTD., priority 2004, published 2005).

Legend:
Format in all cases: in vivo
[1] = test system: prickly sida (Sida spinosa L.), SIDSP; test: Test Example 2 post-emergence (foliage treatment) herbicidal activity, SIDSP; settings: 63 g a.i./ha
Outline: (§1)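 A small sprayer delivered the diluted WP or EC formulation (500 L/ha water, 0.1% v/v spreader) over emerged seedlings in upland soil pots. Damage relative to untreated plants was graded visually from 0 to 100% three weeks or so later (days 20-23).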

[2] = test system: japanese ribbon wapato (Sagittaria pygmaea: SA GPY); test: Test Example 3 water application herbicidal activity (paddy), SAGPY; settings: 63 g a.i./ha, water application under submerged condition, tubers planted, visually observed 14th day after application; 0 = untreated control, 100 = complete kill
Excerpt: (§2) Paddy field soil was put into a 1/1,000,000 ha pot and seeds of barnyardgrass (Echinochiloa oryzicola: ECHOR) and japanese bulrush (Scirpus juncoides: SCPJO) were sown and slightly covered with soil. Then the pot was left to stand still in a greenhouse in a state where the depth of flooding water was from 0.5 to 1 cm, and one day later, tubers of japanese ribbon wapato (Sagittaria pygmaea: SA GPY) were planted. Thereafter, the depth of flooding water was maintained at a level of from 3 to 4 cm, and when barnyardgrass and japanese bulrush reached a 0.5 leaf stage, an aqueous diluted solution of a wettable powder or emulsifiable concentrate having the compound of the present invention formulated in accordance with a usual formulation method, was uniformly applied under submerged condition by a pipette so that the dose of the active ingredient would be at a predetermined level. On the other hand, paddy filed soil was put into a 1/1,000,000 ha pot and puddled and leveled, and the depth of flooding water was from 3 to 4 cm. One day later, rice (Oryza sativa L.: ORYSA) of 2 leaf stage was transplanted in a depth of 3 cm. On the 4th day after the transplantation, the compound of the present invention was applied in the same manner as described above. On the 14th day after the application of the herbicide, the growth of barnyardgrass, japanese burlush and japanese ribbon wapato was visually observed and on the 21st day after the application of the herbicide, the growth of rice was visually observed, and the herbicidal effects were evaluated by growth controlling degrees (%) ranging from 0 (equivalent to the untreated control) to 100 (complete kill), whereby the results shown in Table 6, were obtained. Compound Nos. in Table 6 correspond to Compound Nos. in Table 1 and 2 given hereinbefore.

[3] = test system: crabgrass (Digitaria sanguinalis L.): DIGSA; test: Test Example 1 pre-emergence herbicidal activity, DIGSA; settings: Rate 63 g a.i./ha, visually observed 20th to 23rd day after application
Outline: (§3)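 Herbicidal effect in pre-emergence treatment: formulated compound sprayed at 500 L/ha water one day after sowing in upland field soil pots, with visual 0–100% growth-control scores recorded 20–23 days after application.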

[4] = test system: barnyardgrass (Echinochiloa oryzicola: ECHOR); test: Test Example 3 water application herbicidal activity (paddy), ECHOR; settings: 63 g a.i./ha, water application under submerged condition at 0.5 leaf stage, visually observed 14th day after application; 0 = untreated control, 100 = complete kill
Excerpt: as §2

[5] = test system: wheat (Triticum aestivum L.), TRZAX; test: Test Example 2 post-emergence (foliage treatment) herbicidal activity, TRZAX; settings: 63 g a.i./ha
Outline: as §1

[6] = test system: prickly sida (Sida spinosa L.): SEDSP; test: Test Example 1 pre-emergence herbicidal activity, SIDSP; settings: Rate 63 g a.i./ha, visually observed 20th to 23rd day after application
Outline: as §3

[7] = test system: soybean (Glycine max Merr.): GLXMA; test: Test Example 1 pre-emergence herbicidal activity, GLXMA; settings: Rate 63 g a.i./ha, visually observed 20th to 23rd day after application
Outline: as §3

[8] = test system: corn (Zea mays L.): ZEAMX; test: Test Example 1 pre-emergence herbicidal activity, ZEAMX; settings: Rate 63 g a.i./ha, visually observed 20th to 23rd day after application
Outline: as §3

[9] = test system: japanese bulrush (Scirpus juncoides: SCPJO); test: Test Example 3 water application herbicidal activity (paddy), SCPJO; settings: 63 g a.i./ha, water application under submerged condition at 0.5 leaf stage, visually observed 14th day after application; 0 = untreated control, 100 = complete kill
Excerpt: as §2

[10] = test system: redroot pigweed (Amaranthus retroflexus L.): AMARE; test: Test Example 1 pre-emergence herbicidal activity, AMARE; settings: Rate 63 g a.i./ha, visually observed 20th to 23rd day after application
Outline: as §3

[11] = test system: velvetleaf (Abutilon theophrasti): ABUTH; test: Test Example 1 pre-emergence herbicidal activity, ABUTH; settings: Rate 63 g a.i./ha, visually observed 20th to 23rd day after application
Outline: as §3

[12] = test system: redroot pigweed (Amaranthus retroflexus L.), AMARE; test: Test Example 2 post-emergence (foliage treatment) herbicidal activity, AMARE; settings: 63 g a.i./ha
Outline: as §1

[13] = test system: crabgrass (Digitaria sanguinalis L.), DIGSA; test: Test Example 2 post-emergence (foliage treatment) herbicidal activity, DIGSA; settings: 63 g a.i./ha
Outline: as §1

[14] = test system: corn (Zea mays L.), ZEAMX; test: Test Example 2 post-emergence (foliage treatment) herbicidal activity, ZEAMX; settings: 63 g a.i./ha
Outline: as §1

[15] = test system: green foxtail (Setaria viridis L.): SETVI; test: Test Example 1 pre-emergence herbicidal activity, SETVI; settings: Rate 63 g a.i./ha, visually observed 20th to 23rd day after application
Outline: as §3

[16] = test system: barnyardgrass (Echinochloa crus-galli L.): ECHCG; test: Test Example 1 pre-emergence herbicidal activity, ECHCG; settings: Rate 63 g a.i./ha, visually observed 20th to 23rd day after application
Outline: as §3

[17] = test system: rice (Oryza sativa L.): ORYSA; test: Test Example 1 pre-emergence herbicidal activity, ORYSA; settings: Rate 63 g a.i./ha, visually observed 20th to 23rd day after application
Outline: as §3

[18] = test system: soybean (Glycine max Merr.), GLXMA; test: Test Example 2 post-emergence (foliage treatment) herbicidal activity, GLXMA; settings: 63 g a.i./ha
Outline: as §1

[19] = test system: velvetleaf (Abutilon theophrasti), ABUTH; test: Test Example 2 post-emergence (foliage treatment) herbicidal activity, ABUTH; settings: 63 g a.i./ha
Outline: as §1

[20] = test system: barnyardgrass (Echinochloa crus-galli L.), ECHCG; test: Test Example 2 post-emergence (foliage treatment) herbicidal activity, ECHCG; settings: 63 g a.i./ha
Outline: as §1

[21] = test system: rice (Oryza sativa L.), ORYSA; test: Test Example 2 post-emergence (foliage treatment) herbicidal activity, ORYSA; settings: 63 g a.i./ha
Outline: as §1

[22] = test system: wheat (Triticum aestivum L.): TRZAX; test: Test Example 1 pre-emergence herbicidal activity, TRZAX; settings: Rate 63 g a.i./ha, visually observed 20th to 23rd day after application
Outline: as §3

[23] = test system: green foxtail (Setaria viridis L.), SETVI; test: Test Example 2 post-emergence (foliage treatment) herbicidal activity, SETVI; settings: 63 g a.i./ha
Outline: as §1

| Compound | growth controlling degree, SIDSP [1] [%] | growth controlling degrees (%) SAGPY [2] [%] | Pre-emergence Herbicidal Activity DIGSP (growth controlling degree) [3] [%] | growth controlling degrees (%) ECHOR [4] [%] | growth controlling degree, TRZAX [5] [%] | Pre-emergence Herbicidal Activity SIDSP (growth controlling degree) [6] [%] | Pre-emergence Herbicidal Activity GLXMA (growth controlling degree) [7] [%] | Pre-emergence Herbicidal Activity ZEAMX (growth controlling degree) [8] [%] | growth controlling degrees (%) SCPJO [9] [%] | Pre-emergence Herbicidal Activity AMARE (growth controlling degree) [10] [%] | Pre-emergence Herbicidal Activity ABUTH (growth controlling degree) [11] [%] | growth controlling degree, ZEAMX [14] [%] | Pre-emergence Herbicidal Activity SETVI (growth controlling degree) [15] [%] | Pre-emergence Herbicidal Activity ECHCG (growth controlling degree) [16] [%] | Pre-emergence Herbicidal Activity ORYSA (growth controlling degree) [17] [%] | growth controlling degree, GLXMA [18] [%] | growth controlling degree, ABUTH [19] [%] | growth controlling degree, ECHCO [20] [%] | growth controlling degree, ORYSA [21] [%] | Pre-emergence Herbicidal Activity TRZAX (growth controlling degree) [22] [%] | other results |
| --- | --- | --- | --- | --- | --- | --- | --- | --- | --- | --- | --- | --- | --- | --- | --- | --- | --- | --- | --- | --- | --- |
| COc1c(Cl)cc(F)c(-c2nn(C)c(OC(F)F)c2Cl)c1NC(=O)OCc1cccnc1 [Compound 1-70] | 100 | 100 | 80 | 100 | 30 | 100 | 0 | 0 | 80 | 100 | 100 | 80 | 70 | 90 | 40 | 80 | 100 | 80 | 95 | 0 | growth controlling degree, AMARE [12]: 100%; growth controlling degree, DIGSP [13]: 60% |
| COc1c(Cl)cc(F)c(-c2nn(C)c(OC(F)F)c2Cl)c1NC(=O)OCCN(C)C [Compound 1-66] | 100 | 0 | 20 | 90 | 20 | 20 | 0 | 0 | 30 |  | 20 | 40 | 10 | 0 | 0 | 60 | 100 | 20 | 50 | 0 | growth controlling degree, DIGSP [13]: 40%; growth controlling degree, SETVI [23]: 60% |
| COc1c(Cl)cc(F)c(-c2nn(C)c(OC(F)F)c2Cl)c1NC(=O)OCCCl [Compound 1-68] | 100 | 80 | 100 | 100 | 20 | 100 | 0 | 10 | 95 | 100 | 100 | 50 | 100 | 95 | 40 | 60 | 100 | 70 | 60 | 40 | growth controlling degree, SETVI [23]: 100% |
| COc1c(Cl)cc(F)c(-c2nn(C)c(OC(F)F)c2Cl)c1NC(=O)Oc1ccccc1 [Compound 1-67] | 100 | 100 | 100 | 100 | 30 | 80 | 0 | 0 | 100 | 100 | 70 | 30 | 100 | 50 | 40 | 70 | 100 | 70 | 60 | 10 | growth controlling degree, AMARE [12]: 100%; growth controlling degree, DIGSP [13]: 70% |
| C#CCOC(=O)Nc1c(OC)c(Cl)cc(F)c1-c1nn(C)c(OC(F)F)c1Cl [Compound 1-74] | 100 |  | 100 |  | 50 | 100 | 0 | 10 |  | 100 | 100 | 30 | 100 | 90 | 50 | 60 | 100 | 98 | 95 | 30 | growth controlling degree, AMARE [12]: 100%; growth controlling degree, DIGSP [13]: 70%; growth controlling degree, SETVI [23]: 100% |
| COc1c(Cl)cc(F)c(-c2nn(C)c(OC(F)F)c2Cl)c1NC(=O)OCc1ccccc1 [Compound 1-71] | 100 | 100 | 100 | 100 | 60 | 100 | 10 | 30 | 70 | 100 | 100 | 70 | 100 | 98 | 60 | 80 | 100 | 100 | 80 | 30 |  |
